Experiments:
Assay in all cases: relative viability (nuclei count vs DMSO), 5 days (fraction); higher = more cells survive
CAP-232 + Trametinib = compound: C[C@H]([C@@H](C(=O)N)NC(=O)[C@@H]1CSSC[C@@H](C(=O)N[C@H](C(=O)N[C@@H](C(=O)N[C@H](C(=O)N1)CCCCN)CC2=CNC3=CC=CC=C32)CC4=CC=C(C=C4)O)NC(=O)[C@@H](CC5=CC=CC=C5)N)O [CAP-232] + CC(=O)Nc1cccc(-n2c(=O)n(C3CC3)c(=O)c3c(Nc4ccc(I)cc4F)n(C)c(=O)c(C)c32)c1 [Trametinib] (partner 0.02 µM)
Procedure, shortened: (§1)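 For relative viability, nuclei counts in treated wells were divided by those in vehicle wells. Lung cancer cell lines had been pin-tool dosed in 1536-well plates the day after seeding and cultured for 5 days, then fixed and stained in one step (final 0.05% Triton X-100, 1% formaldehyde, 1 ug/ml Hoechst) and imaged at 4×. Doses were one drug alone or a fixed anchor-drug dose plus five library-drug doses (not always all listed) in √10 steps, and values are duplicate-plate medians.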

CAP-232 + Pictilisib = compound: C[C@H]([C@@H](C(=O)N)NC(=O)[C@@H]1CSSC[C@@H](C(=O)N[C@H](C(=O)N[C@@H](C(=O)N[C@H](C(=O)N1)CCCCN)CC2=CNC3=CC=CC=C32)CC4=CC=C(C=C4)O)NC(=O)[C@@H](CC5=CC=CC=C5)N)O [CAP-232] + CS(=O)(=O)N1CCN(Cc2cc3nc(-c4cccc5[nH]ncc45)nc(N4CCOCC4)c3s2)CC1 [Pictilisib] (partner 1 µM)
Procedure, shortened: as §1

CAP-232 + Crizotinib = compound: C[C@H]([C@@H](C(=O)N)NC(=O)[C@@H]1CSSC[C@@H](C(=O)N[C@H](C(=O)N[C@@H](C(=O)N[C@H](C(=O)N1)CCCCN)CC2=CNC3=CC=CC=C32)CC4=CC=C(C=C4)O)NC(=O)[C@@H](CC5=CC=CC=C5)N)O [CAP-232] + C[C@@H](Oc1cc(-c2cnn(C3CCNCC3)c2)cnc1N)c1c(Cl)ccc(F)c1Cl [Crizotinib] (partner 1 µM)
Procedure, shortened: as §1

CAP-232 + AZD7762 = compound: C[C@H]([C@@H](C(=O)N)NC(=O)[C@@H]1CSSC[C@@H](C(=O)N[C@H](C(=O)N[C@@H](C(=O)N[C@H](C(=O)N1)CCCCN)CC2=CNC3=CC=CC=C32)CC4=CC=C(C=C4)O)NC(=O)[C@@H](CC5=CC=CC=C5)N)O [CAP-232] + NC(=O)Nc1cc(-c2cccc(F)c2)sc1C(=O)N[C@H]1CCCNC1 [AZD7762] (partner 0.2 µM)
Procedure, shortened: as §1

CAP-232 + Olaparib = compound: C[C@H]([C@@H](C(=O)N)NC(=O)[C@@H]1CSSC[C@@H](C(=O)N[C@H](C(=O)N[C@@H](C(=O)N[C@H](C(=O)N1)CCCCN)CC2=CNC3=CC=CC=C32)CC4=CC=C(C=C4)O)NC(=O)[C@@H](CC5=CC=CC=C5)N)O [CAP-232] + O=C(c1cc(Cc2n[nH]c(=O)c3ccccc23)ccc1F)N1CCN(C(=O)C2CC2)CC1 [Olaparib] (partner 8 µM)
Procedure, shortened: as §1

| Cell Line | relative viability (CAP-232 + Trametinib; first compound 0.4 µM) | relative viability (CAP-232 + Trametinib; first compound 1.265 µM) | relative viability (CAP-232 + Trametinib; first compound 4 µM) | relative viability (CAP-232 + Trametinib; first compound 12.65 µM) | relative viability (CAP-232 + Pictilisib; first compound 0.4 µM) | relative viability (CAP-232 + Pictilisib; first compound 1.265 µM) | relative viability (CAP-232 + Pictilisib; first compound 4 µM) | relative viability (CAP-232 + Pictilisib; first compound 12.65 µM) | relative viability (CAP-232 + Crizotinib; first compound 0.4 µM) | relative viability (CAP-232 + Crizotinib; first compound 1.265 µM) | relative viability (CAP-232 + Crizotinib; first compound 4 µM) | relative viability (CAP-232 + Crizotinib; first compound 12.65 µM) | relative viability (CAP-232 + AZD7762; first compound 0.4 µM) | relative viability (CAP-232 + AZD7762; first compound 1.265 µM) | relative viability (CAP-232 + AZD7762; first compound 4 µM) | relative viability (CAP-232 + AZD7762; first compound 12.65 µM) | relative viability (CAP-232 + Olaparib; first compound 0.4 µM) | relative viability (CAP-232 + Olaparib; first compound 1.265 µM) | relative viability (CAP-232 + Olaparib; first compound 4 µM) | relative viability (CAP-232 + Olaparib; first compound 12.65 µM) |
| --- | --- | --- | --- | --- | --- | --- | --- | --- | --- | --- | --- | --- | --- | --- | --- | --- | --- | --- | --- | --- |
| NCI-H1975 | 0.368 | 0.262 | 0.743 | 0.225 | 0.262 | 0.261 | 0.313 | 0.191 | 1.11 | 1.07 | 1.08 | 0.892 | 0.892 | 0.711 | 0.712 | 0.442 | 0.825 | 0.894 | 1.04 | 0.363 |
| NCI-H322M | 0.46 | 0.514 | 0.497 | 0.539 | 0.54 | 0.556 | 0.519 | 0.487 | 1.01 | 0.903 | 0.841 | 0.778 | 0.827 | 0.645 | 0.528 | 0.556 | 0.939 | 0.746 | 0.745 | 0.697 |
| NCI-H1651 | 0.902 | 0.803 | 0.836 | 0.784 | 0.666 | 0.685 | 0.624 | 0.368 | 0.861 | 0.856 | 0.918 | 0.904 | 0.487 | 0.429 | 0.553 | 0.481 | 0.196 | 0.184 | 0.2 | 0.214 |
| HARA | 0.323 | 0.9 | 0.643 | 0.506 | 0.401 | 0.432 | 0.358 | 0.26 | 1.16 | 1.05 | 0.936 | 0.998 | 0.397 | 0.576 | 0.267 | 0.315 | 0.823 | 0.784 | 0.865 | 0.609 |
| H3255 | 0.608 |  | 0.543 | 0.436 | 0.443 | 0.491 | 0.553 | 0.366 | 0.956 | 1.04 | 0.854 | 0.692 | 0.979 | 0.869 | 0.898 | 0.756 | 0.569 | 0.587 | 0.552 | 0.433 |
| NCI-H441 | 0.431 | 0.41 | 0.479 | 0.501 | 0.411 | 0.462 | 0.412 | 0.385 | 0.711 | 0.636 | 0.639 | 0.734 | 1.03 | 1.16 | 1.22 | 0.922 | 0.482 | 0.551 | 0.595 | 0.429 |
| CAL-12T | 0.233 | 0.303 | 0.394 | 0.162 | 0.383 | 0.381 | 0.435 | 0.322 | 0.531 | 0.703 | 0.657 | 0.739 | 0.753 | 0.596 | 0.664 | 0.706 | 0.778 | 0.767 | 0.696 | 0.6 |

— the supplement of paper PMC10307832
